The values below come from US11746100B2 (GLOBAL BLOOD THERAPEUTICS, INC., priority 2020, dated 2023).

Each structure is given as a SMILES string.

The experiment addresses T1, human ferroportin (Homo sapiens, UniProt Q9NP59).
T1 construct: luciferase reporter (read with the Nano-Glo Luciferase Assay System); expressed in transfected cells; host or cells: CHO cells, stably transfected, expression induced with doxycycline
T1 sequence (Q9NP59 1-571): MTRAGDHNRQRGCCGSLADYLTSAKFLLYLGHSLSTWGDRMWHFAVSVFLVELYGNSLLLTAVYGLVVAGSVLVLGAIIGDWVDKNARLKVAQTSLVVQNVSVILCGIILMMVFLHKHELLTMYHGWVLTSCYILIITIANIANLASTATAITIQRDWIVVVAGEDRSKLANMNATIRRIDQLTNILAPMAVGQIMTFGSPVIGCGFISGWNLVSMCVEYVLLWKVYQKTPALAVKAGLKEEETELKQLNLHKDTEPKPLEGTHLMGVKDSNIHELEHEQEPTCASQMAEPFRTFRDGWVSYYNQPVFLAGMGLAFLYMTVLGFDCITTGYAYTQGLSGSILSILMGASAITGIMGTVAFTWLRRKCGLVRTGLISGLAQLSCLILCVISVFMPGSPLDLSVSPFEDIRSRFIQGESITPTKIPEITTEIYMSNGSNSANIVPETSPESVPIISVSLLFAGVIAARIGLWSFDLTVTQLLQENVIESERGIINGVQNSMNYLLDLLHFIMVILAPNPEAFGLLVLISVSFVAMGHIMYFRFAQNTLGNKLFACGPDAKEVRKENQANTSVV
The experiment is described as follows: Biological in-vitro ferroportin internalization assay (luciferase reporter). The experiment is classed as cell-based. The conditions noted are these: average pEC50; stably-transfected CHO cell line expressing human ferroportin tagged to a luciferase reporter; 6 h incubation with test compound. Summed up:
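Read-out is Nano-Glo luciferase signal after 6 h compound exposure, with average pEC50 derived. Cells are a stable CHO line carrying luciferase-tagged human ferroportin, pre-loaded 24 h with ferric ammonium citrate and doxycycline-induced for 24 h.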
`CCNC(=O)CN(C)c1nc(-c2cc(OCC3(O)CCOCC3)ccn2)nc2c1CCC2` [Compound 447, N-ethyl-2-[(2-{4-[(4-hydroxyoxan-4-yl)methoxy]pyridin-2-yl}-5H,6H,7H-cyclopenta[d]pyrimidin-4-yl)(methyl)amino]acetamide] had a pEC50 of 7.6.

In turn, `COC[C@@H](O)COc1ccnc(-c2nc3c(c(N(C)CC(=O)NC(C)C)n2)CCC3)c1` [Compound 448, 2-[(2-{4-[(2R)-2-hydroxy-3-methoxypropoxy]pyridin-2-yl}-5H,6H,7H-cyclopenta[d]pyrimidin-4-yl)(methyl)amino]-N-(propan-2-yl)acetamide] showed a negative-log EC50 (pEC50) of 7.4.

The compound `CC(C)NC(=O)CN(C)c1nc(-c2cc(OCC(C)(C)O)ccn2)nc2c1CC(C)(C)C2` [Compound 449, 2-({2-[4-(2-hydroxy-2-methylpropoxy)pyridin-2-yl]-6,6-dimethyl-5H,6H,7H-cyclopenta[d]pyrimidin-4-yl}(methyl)amino)-N-(propan-2-yl)acetamide] displayed a pEC50 of 7.2.

As to `CC(C)NC(=O)CN(C)c1nc(-c2cc(OCC(C)(C)O)ccn2)nc2c1CCC2(C)C` [Compound 450, 2-({2-[4-(2-hydroxy-2-methylpropoxy)pyridin-2-yl]-7,7-dimethyl-5H,6H,7H-cyclopenta[d]pyrimidin-4-yl}(methyl)amino)-N-(propan-2-yl)acetamide], the pEC50 worked out at 6.4.

`CN(CC(=O)NC(C)(C)C)c1nc(-c2cc(OC[C@@H](O)CO)ccn2)nc2c1CCC2` [Compound 451, N-tert-butyl-2-[(2-{4-[(2S)-2,3-dihydroxypropoxy]pyridin-2-yl}-5H,6H,7H-cyclopenta[d]pyrimidin-4-yl)(methyl)amino]acetamide]: the pEC50 is recorded as 7.8.

In the case of `CN(CC(=O)NC(C)(C)C)c1nc(-c2cc(OC[C@H](O)CF)ccn2)nc2c1CCC2` [Compound 452, N-tert-butyl-2-[(2-{4-[(2S)-3-fluoro-2-hydroxypropoxy]pyridin-2-yl}-5H,6H,7H-cyclopenta[d]pyrimidin-4-yl)(methyl)amino]acetamide], the pEC50 was 8.4.

In turn, `CC(C)NC(=O)[C@@H](C)N(C)c1nc(-c2cc(OCC(C)(C)O)ccn2)nc2c1CCC2` [Compound 453, (2R)-2-({2-[4-(2-hydroxy-2-methylpropoxy)pyridin-2-yl]-5H,6H,7H-cyclopenta[d]pyrimidin-4-yl}(methyl)amino)-N-(propan-2-yl)propanamide] had a negative logarithm of the EC50 (pEC50) of 8.1.

For `CN(C)CCOc1ccnc(-c2nc3c(c(N(C)CC(=O)NC(C)(C)C)n2)CC(C)(C)C3)c1` [Compound 454, N-tert-butyl-2-[(2-{4-[2-(dimethylamino)ethoxy]pyridin-2-yl}-6,6-dimethyl-5H,6H,7H-cyclopenta[d]pyrimidin-4-yl)(methyl)amino]acetamide], the pEC50 is listed as 7.9.

As to `CC(C)NC(=O)CN(C)c1nc(-c2cc(OCCN(C)C)ccn2)nc2c1CC(C)(C)C2` [Compound 455, 2-[(2-{4-[2-(dimethylamino)ethoxy]pyridin-2-yl}-6,6-dimethyl-5H,6H,7H-cyclopenta[d]pyrimidin-4-yl)(methyl)amino]-N-(propan-2-yl)acetamide], the pEC50 came to 7.7.

The compound `CC(C)NC(=O)CN(C)c1nc(-c2cc(OCCN(C)C)ccn2)nc2c1CCC2(C)C` [Compound 456, 2-[(2-{4-[2-(dimethylamino)ethoxy]pyridin-2-yl}-7,7-dimethyl-5H,6H,7H-cyclopenta[d]pyrimidin-4-yl)(methyl)amino]-N-(propan-2-yl)acetamide] registered a negative-log EC50 (pEC50) of 6.2.

`CN(C)CCOc1ccnc(-c2nc(N(C)CC(=O)NC(C)(C)C)c3c(n2)C(C)(C)CC3)c1` [Compound 457, N-tert-butyl-2-[(2-{4-[2-(dimethylamino)ethoxy]pyridin-2-yl}-7,7-dimethyl-5H,6H,7H-cyclopenta[d]pyrimidin-4-yl)(methyl)amino]acetamide] came in with a negative-log EC50 (pEC50) of 6.3.

With `COc1ccnc(-c2nc3c(c(N(C)CC(=O)N[C@H](C)CO)n2)CCC3)c1` [Compound 458, N-[(2R)-1-hydroxypropan-2-yl]-2-{[2-(4-methoxypyridin-2-yl)-5H,6H,7H-cyclopenta[d]pyrimidin-4-yl](methyl)amino}acetamidede], the pEC50 came out at 7.3.

`COc1ccnc(-c2nc3c(c(N(C)CC(=O)N[C@@H](C)CO)n2)CCC3)c1` [Compound 459, N-[(2S)-1-hydroxypropan-2-yl]-2-{[2-(4-methoxypyridin-2-yl)-5H,6H,7H-cyclopenta[d]pyrimidin-4-yl](methyl)amino}acetamide] came in with a negative logarithm of the EC50 (pEC50) of 7.3.

The compound `CN(CC(=O)NC(C)(C)C)c1nc(-c2cc(OCCN3CCOCC3)ccn2)nc2c1CCC2` [Compound 460, N-tert-butyl-2-[methyl(2-{4-[2-(morpholin-4-yl)ethoxy]pyridin-2-yl}-5H,6H,7H-cyclopenta[d]pyrimidin-4-yl)amino]acetamide] yielded a negative logarithm of the EC50 (pEC50) of 8.2.

For `CN(CC(=O)NC(C)(C)C)c1nc(-c2cc(OCCN3C[C@@H]4C[C@H]3CO4)ccn2)nc2c1CCC2` [Compound 461, N-tert-butyl-2-{methyl[2-(4-{2-[(1S,4S)-2-oxa-5-azabicyclo[2.2.1]heptan-5-yl]ethoxy}pyridin-2-yl)-5H,6H,7H-cyclopenta[d]pyrimidin-4-yl]amino}acetamide], the pEC50 is given as 8.3.

The compound `CN(CC(=O)NC(C)(C)C)c1nc(-c2cc(OCCN3C[C@H]4C[C@@H]3CO4)ccn2)nc2c1CCC2` [Compound 462, N-tert-butyl-2-{methyl[2-(4-{2-[(1R,4R)-2-oxa-5-azabicyclo[2.2.1]heptan-5-yl]ethoxy}pyridin-2-yl)-5H,6H,7H-cyclopenta[d]pyrimidin-4-yl]amino}acetamide] registered a negative logarithm of the EC50 (pEC50) of 8.4.

Compound `CO[C@@H]1CCN(CCOc2ccnc(-c3nc4c(c(N(C)CC(=O)NC(C)(C)C)n3)CCC4)c2)C1` [Compound 463, N-tert-butyl-2-{[2-(4-{2-[(3R)-3-methoxypyrrolidin-1-yl]ethoxy}pyridin-2-yl)-5H,6H,7H-cyclopenta[d]pyrimidin-4-yl](methyl)amino}acetamide] had a negative-log EC50 (pEC50) of 8.1.

`CO[C@H]1CCN(CCOc2ccnc(-c3nc4c(c(N(C)CC(=O)NC(C)(C)C)n3)CCC4)c2)C1` [Compound 464, N-tert-butyl-2-{[2-(4-{2-[(3S)-3-methoxypyrrolidin-1-yl]ethoxy}pyridin-2-yl)-5H,6H,7H-cyclopenta[d]pyrimidin-4-yl](methyl)amino}acetamide] had a negative-log EC50 (pEC50) of 8.0.

In turn, `CN(CC(=O)NC(C)(C)C)c1nc(-c2cc(OCCn3ccnc3)ccn2)nc2c1CCC2` [Compound 465, N-tert-butyl-2-[(2-{4-[2-(1H-imidazol-1-yl)ethoxy]pyridin-2-yl}-5H,6H,7H-cyclopenta[d]pyrimidin-4-yl)(methyl)amino]acetamide] came in with a pEC50 of 8.3.

As for `CN(CC(=O)NC(C)(C)C)c1nc(-c2cc(OCCn3cnnn3)ccn2)nc2c1CCC2` [Compound 466, N-tert-butyl-2-[methyl(2-{4-[2-(1H-1,2,3,4-tetrazol-1-yl)ethoxy]pyridin-2-yl}-5H,6H,7H-cyclopenta[d]pyrimidin-4-yl)amino]acetamide], the pEC50 was 7.9.

In turn, `CCOc1ccnc(-c2nc3c(c(N(C)CC(=O)NC(C)(C)C)n2)CCC3)c1` [Compound 467, N-tert-butyl-2-{[2-(4-ethoxypyridin-2-yl)-5H,6H,7H-cyclopenta[d]pyrimidin-4-yl](methyl)amino}acetamide] yielded a negative-log EC50 (pEC50) of 8.3.

Take `CN(CC(=O)NC(C)(C)C)c1nc(-c2cc(OCCOc3cccnn3)ccn2)nc2c1CCC2` [Compound 468, N-tert-butyl-2-[methyl(2-{4-[2-(pyridazin-3-yloxy)ethoxy]pyridin-2-yl}-5H,6H,7H-cyclopenta[d]pyrimidin-4-yl)amino]acetamide]: the negative-log EC50 (pEC50) is 8.5.

`CCC(O)(CC)COc1ccnc(-c2nc3c(c(N(C)CC(=O)N[C@@H]4CCC[C@@H]4O)n2)CCC3)c1` [Compound 469, 2-({2-[4-(2-ethyl-2-hydroxybutoxy)pyridin-2-yl]-5H,6H,7H-cyclopenta[d]pyrimidin-4-yl}(methyl)amino)-N-[(1R,2S)-2-hydroxycyclopentyl]acetamidede]: the pEC50 worked out at 8.3.

On to `CN(C)CCOc1ccnc(-c2nc3c(c(N(CC(=O)NC(C)(C)C)CC(F)(F)F)n2)CCC3)c1` [Compound 470, N-tert-butyl-2-[(2-{4-[2-(dimethylamino)ethoxy]pyridin-2-yl}-5H,6H,7H-cyclopenta[d]pyrimidin-4-yl)(2,2,2-trifluoroethyl)amino]acetamide], for which the negative logarithm of the EC50 (pEC50) is on record as 7.2.

In turn, `COc1ccnc(-c2nc3c(c(N(C)CC(=O)N4CC[C@@H](O)C4)n2)CCC3)c1` [Compound 471, 1-[(3R)-3-hydroxypyrrolidin-1-yl]-2-{[2-(4-methoxypyridin-2-yl)-5H,6H,7H-cyclopenta[d]pyrimidin-4-yl](methyl)amino}ethan-1-one] came in with a pEC50 of 7.4.

Regarding `COc1ccnc(-c2nc3c(c(N(C)CC(=O)N4CC[C@H](O)C4)n2)CCC3)c1` [Compound 472, 1-[(3S)-3-hydroxypyrrolidin-1-yl]-2-{[2-(4-methoxypyridin-2-yl)-5H,6H,7H-cyclopenta[d]pyrimidin-4-yl](methyl)amino}ethan-1-one], the negative logarithm of the EC50 (pEC50) came to 7.4.
